{
  "source": "patent US20090005395A1",
  "about": "(Solvay Pharmaceuticals, B.V., priority 2007, published 2009)",
  "key": {"[1]": {"test": "Plasma and brain concentrations of N-desmethylsildenafil (pilot experiment)", "assay_type": "in vivo, male NMRI mice", "details": "mice, i.v. or p.o.; for the N-oxide only observed after oral dosing", "description": "Sildenafil and its N-oxide were analyzed in mouse plasma and brain samples using a generic bioanalytical method comprising protein precipitation and HPLC with MS/MS detection.\nSample preparation: Proteins in 100 μl plasma were precipitated with acetonitrile, and 5 μl samples of the obtained solution were analyzed. Complete brains were homogenized and centrifuged, and 10 μl samples of the supernatant were analyzed.\nLiquid Chromatography-Tandem Mass Spectrometry (LC-MS/MS) was performed using a Sciex API4000 LC-MS/MS. Quantification of the samples was done using extracted calibration samples, treated the same as the study samples in the range of 1-5000 ng/ml and 5.0-5000 ng/brain for plasma and brains samples, respectively. Compound peak area was used for quantification. The calibration curves were fitted to the model y=A+Bx+Cx^2 (y is the peak area of the analyte, x is the nominal calibration level in ng/ml (plasma) or ng/g (brain), A is the intercept, B is the slope and C is the description of the curvature). 1/x^2 weighing was used. LC-MS/MS system performance was monitored using a reference solution injected at standard intervals. The method use for testing was not validated in detail, therefore the reported concentrations were good estimations. The Lower Limit Of Quantification (LLOQ) was established at 1.00 ng/ml and 5.00 ng/brain, for plasma and brain samples, respectively. […]"}, "PDE-V": {"molecular_target": "PDE-V (Homo sapiens, UniProt O76074)", "test": "In vitro inhibition of phosphodiesterases (CEREP): PDE-V"}, "PDE-I": {"system": "PDE-I", "test": "In vitro inhibition of phosphodiesterases (CEREP): PDE-I", "details": "bovine brain"}, "PDE-VI": {"molecular_target": "T1, PDE-VI (Bos taurus, UniProt P11541+P23439)", "T1 sequence (P11541 2-856 limits assumed)": "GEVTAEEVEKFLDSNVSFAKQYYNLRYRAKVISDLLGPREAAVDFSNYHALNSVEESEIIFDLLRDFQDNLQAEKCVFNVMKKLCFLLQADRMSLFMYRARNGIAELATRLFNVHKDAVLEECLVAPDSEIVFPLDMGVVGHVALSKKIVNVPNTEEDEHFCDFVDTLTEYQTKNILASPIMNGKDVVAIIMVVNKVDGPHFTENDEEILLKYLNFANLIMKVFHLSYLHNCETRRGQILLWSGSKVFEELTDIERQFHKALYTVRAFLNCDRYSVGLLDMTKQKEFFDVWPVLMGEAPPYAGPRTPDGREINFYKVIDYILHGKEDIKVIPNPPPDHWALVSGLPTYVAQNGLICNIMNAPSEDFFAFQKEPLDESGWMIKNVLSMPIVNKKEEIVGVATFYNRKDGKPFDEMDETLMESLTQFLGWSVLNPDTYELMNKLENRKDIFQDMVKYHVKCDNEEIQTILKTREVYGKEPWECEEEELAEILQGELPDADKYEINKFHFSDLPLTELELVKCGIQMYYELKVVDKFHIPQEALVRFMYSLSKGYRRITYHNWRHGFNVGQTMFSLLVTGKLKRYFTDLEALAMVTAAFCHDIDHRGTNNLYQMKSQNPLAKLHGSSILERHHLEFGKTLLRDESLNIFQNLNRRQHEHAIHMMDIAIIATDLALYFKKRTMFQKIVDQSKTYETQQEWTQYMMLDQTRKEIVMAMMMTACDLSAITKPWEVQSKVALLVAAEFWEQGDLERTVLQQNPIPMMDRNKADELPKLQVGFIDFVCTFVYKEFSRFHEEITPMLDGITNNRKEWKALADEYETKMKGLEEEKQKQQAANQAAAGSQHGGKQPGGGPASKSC", "T1 sequence (P23439 2-850 limits assumed)": "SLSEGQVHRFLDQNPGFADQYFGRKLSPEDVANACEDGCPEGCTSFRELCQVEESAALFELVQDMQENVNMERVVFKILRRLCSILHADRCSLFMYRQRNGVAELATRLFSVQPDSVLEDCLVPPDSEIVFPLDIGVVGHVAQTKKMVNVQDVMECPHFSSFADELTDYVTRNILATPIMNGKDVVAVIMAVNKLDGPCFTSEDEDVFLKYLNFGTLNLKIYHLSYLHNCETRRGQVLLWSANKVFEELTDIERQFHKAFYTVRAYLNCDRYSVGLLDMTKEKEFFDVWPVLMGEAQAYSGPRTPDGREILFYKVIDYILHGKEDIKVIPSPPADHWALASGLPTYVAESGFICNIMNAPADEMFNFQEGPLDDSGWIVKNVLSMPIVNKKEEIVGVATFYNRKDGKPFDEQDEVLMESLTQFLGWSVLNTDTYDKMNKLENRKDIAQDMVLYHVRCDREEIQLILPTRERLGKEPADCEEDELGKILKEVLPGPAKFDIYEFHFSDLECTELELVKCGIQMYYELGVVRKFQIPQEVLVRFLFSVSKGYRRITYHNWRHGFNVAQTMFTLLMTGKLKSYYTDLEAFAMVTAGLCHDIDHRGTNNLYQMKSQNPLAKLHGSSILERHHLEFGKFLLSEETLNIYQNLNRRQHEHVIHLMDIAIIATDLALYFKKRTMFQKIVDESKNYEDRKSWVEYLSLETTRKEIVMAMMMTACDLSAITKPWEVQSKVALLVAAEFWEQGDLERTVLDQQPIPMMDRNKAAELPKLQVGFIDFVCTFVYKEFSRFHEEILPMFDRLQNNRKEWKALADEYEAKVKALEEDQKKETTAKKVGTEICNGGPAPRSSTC", "test": "In vitro inhibition of phosphodiesterases (CEREP): PDE-VI"}, "PDE-IV": {"system": "PDE-IV", "test": "In vitro inhibition of phosphodiesterases (CEREP): PDE-IV", "details": "human U-937 monocytes"}, "PDE-II": {"molecular_target": "PDE-II (Homo sapiens, UniProt O00408)", "sequence (O00408 whole entry)": "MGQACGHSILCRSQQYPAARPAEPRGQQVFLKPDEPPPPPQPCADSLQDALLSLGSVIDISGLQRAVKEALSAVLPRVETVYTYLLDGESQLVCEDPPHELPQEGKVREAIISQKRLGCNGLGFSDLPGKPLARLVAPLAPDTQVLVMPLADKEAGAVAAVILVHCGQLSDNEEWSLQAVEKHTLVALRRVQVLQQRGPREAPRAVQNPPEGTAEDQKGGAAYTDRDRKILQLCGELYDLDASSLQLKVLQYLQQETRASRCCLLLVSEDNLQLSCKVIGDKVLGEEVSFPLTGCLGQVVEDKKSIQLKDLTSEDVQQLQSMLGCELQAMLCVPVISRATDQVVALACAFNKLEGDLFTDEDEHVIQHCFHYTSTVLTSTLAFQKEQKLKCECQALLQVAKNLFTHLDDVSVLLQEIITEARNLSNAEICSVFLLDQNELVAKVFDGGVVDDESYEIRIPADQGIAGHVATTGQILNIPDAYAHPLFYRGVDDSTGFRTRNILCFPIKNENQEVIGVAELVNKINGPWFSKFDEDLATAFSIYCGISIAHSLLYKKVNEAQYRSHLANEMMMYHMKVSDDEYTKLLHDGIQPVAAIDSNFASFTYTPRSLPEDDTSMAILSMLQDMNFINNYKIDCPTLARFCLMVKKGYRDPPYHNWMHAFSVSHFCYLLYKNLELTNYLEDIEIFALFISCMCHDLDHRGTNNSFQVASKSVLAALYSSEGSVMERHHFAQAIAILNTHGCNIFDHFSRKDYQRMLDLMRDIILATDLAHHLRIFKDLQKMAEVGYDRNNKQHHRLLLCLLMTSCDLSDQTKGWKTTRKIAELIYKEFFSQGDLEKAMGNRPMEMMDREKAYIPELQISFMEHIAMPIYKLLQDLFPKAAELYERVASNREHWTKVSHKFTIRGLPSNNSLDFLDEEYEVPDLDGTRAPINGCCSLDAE", "test": "In vitro inhibition of phosphodiesterases (CEREP): PDE-II"}},
  "data": [
    {"smiles": "CCCc1nn(C)c2c(=O)[nH]c(-c3cc(S(=O)(=O)N4CC[N+](C)([O-])CC4)ccc3OCC)nc12", "note": "[Sildenafil-N-oxide, 1-[[3-(6,7-dihydro-1-methyl-7-oxo-3-propyl-1H-pyrazolo[4,3-d]pyrimidin-5-yl)-4-ethoxyphenyl]sulfonyl]-4-methyl-4-oxido-piperazine]", "values": [
      {"measurement": "metabolism to N-desmethylsildenafil", "setting": "[1]", "value": "metabolized to N-desmethylsildenafil"},
      {"measurement": "IC50", "setting": "PDE-V", "value": 200, "unit": "nM"},
      {"measurement": "activity relative to the parent compound sildenafil", "setting": "PDE-V", "value": "about one tenth"},
      {"measurement": "fold less potent than sildenafil", "setting": "PDE-V; from Table 5", "value": 10, "unit": "fold"},
      {"measurement": "pIC50 PDE-I", "setting": "PDE-I", "value": 5.8},
      {"measurement": "IC50", "setting": "PDE-VI", "value": 1000, "unit": "nM"},
      {"measurement": "pIC50 PDE-IV", "setting": "PDE-IV", "value": "<5.0"},
      {"measurement": "IC50", "setting": "PDE-II", "value": "> 10000", "unit": "nM"}
    ]}
  ]
}
